PMC11187827 (Journal of natural products, 2020)

Columns and labels:
[1] = molecular target: SERT (serotonin transporter) (Homo sapiens, UniProt P31645); experiment: receptor binding assay
[2] = molecular target: NET (norepinephrine transporter) (Homo sapiens, UniProt P23975); experiment: receptor binding assay
[3] = molecular target: DAT (dopamine transporter) (Homo sapiens, UniProt Q01959); experiment: receptor binding assay
sigma-2 receptor (σ 2) = molecular target: T1, sigma-2 receptor (σ 2) (Rattus norvegicus, UniProt Q5U3Y7); experiment: receptor binding assay
T1 sequence (Q5U3Y7 1-176): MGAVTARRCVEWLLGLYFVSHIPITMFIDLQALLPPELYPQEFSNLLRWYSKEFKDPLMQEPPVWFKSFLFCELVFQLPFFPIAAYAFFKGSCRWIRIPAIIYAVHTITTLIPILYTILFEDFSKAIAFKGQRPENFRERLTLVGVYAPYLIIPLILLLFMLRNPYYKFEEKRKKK

male Swiss Webster mice [4] = experiment: forced-swim test; assay type: in vivo, mouse; settings: 20 mg/kg, i.p., relative to desipramine (20 mg/kg)
male Swiss Webster mice [5] = experiment: locomotor activity test; assay type: in vivo, mouse; settings: 20 mg/kg, i.p.

Chain of NET (norepinephrine transporter) (P23975 whole entry): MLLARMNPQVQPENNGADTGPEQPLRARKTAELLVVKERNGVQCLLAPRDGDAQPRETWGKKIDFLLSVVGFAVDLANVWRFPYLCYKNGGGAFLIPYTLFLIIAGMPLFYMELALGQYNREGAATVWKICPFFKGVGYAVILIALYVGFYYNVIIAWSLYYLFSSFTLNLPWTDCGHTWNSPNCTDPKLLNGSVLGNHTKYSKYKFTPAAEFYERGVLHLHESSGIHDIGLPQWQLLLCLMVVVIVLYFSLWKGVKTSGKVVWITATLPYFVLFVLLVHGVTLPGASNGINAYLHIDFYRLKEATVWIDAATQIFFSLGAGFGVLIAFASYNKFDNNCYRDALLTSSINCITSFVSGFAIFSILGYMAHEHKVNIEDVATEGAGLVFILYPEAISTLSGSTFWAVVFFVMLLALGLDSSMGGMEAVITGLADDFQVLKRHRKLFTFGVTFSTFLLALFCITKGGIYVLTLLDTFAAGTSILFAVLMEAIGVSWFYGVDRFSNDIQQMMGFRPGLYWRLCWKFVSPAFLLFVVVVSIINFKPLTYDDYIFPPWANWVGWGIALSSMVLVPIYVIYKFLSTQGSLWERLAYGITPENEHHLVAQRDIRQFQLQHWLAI
Chain of DAT (dopamine transporter) (Q01959 whole entry, species assumed): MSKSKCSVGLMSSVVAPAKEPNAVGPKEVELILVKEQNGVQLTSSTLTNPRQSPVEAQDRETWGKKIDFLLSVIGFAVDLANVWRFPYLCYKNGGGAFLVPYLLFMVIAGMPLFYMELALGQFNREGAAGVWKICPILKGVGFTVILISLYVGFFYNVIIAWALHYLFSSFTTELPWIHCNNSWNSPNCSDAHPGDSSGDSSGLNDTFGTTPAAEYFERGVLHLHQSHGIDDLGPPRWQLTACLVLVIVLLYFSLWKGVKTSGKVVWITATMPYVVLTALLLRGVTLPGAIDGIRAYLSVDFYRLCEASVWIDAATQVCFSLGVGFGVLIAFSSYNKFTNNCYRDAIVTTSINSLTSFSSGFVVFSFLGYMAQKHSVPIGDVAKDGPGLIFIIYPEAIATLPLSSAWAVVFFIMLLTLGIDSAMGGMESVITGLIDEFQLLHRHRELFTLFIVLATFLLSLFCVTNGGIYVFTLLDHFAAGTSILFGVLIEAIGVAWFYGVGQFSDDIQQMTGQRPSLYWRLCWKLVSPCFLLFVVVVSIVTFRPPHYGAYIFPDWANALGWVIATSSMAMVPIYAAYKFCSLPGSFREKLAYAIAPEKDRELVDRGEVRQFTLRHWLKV
Chain of SERT (serotonin transporter) (P31645 whole entry, species assumed): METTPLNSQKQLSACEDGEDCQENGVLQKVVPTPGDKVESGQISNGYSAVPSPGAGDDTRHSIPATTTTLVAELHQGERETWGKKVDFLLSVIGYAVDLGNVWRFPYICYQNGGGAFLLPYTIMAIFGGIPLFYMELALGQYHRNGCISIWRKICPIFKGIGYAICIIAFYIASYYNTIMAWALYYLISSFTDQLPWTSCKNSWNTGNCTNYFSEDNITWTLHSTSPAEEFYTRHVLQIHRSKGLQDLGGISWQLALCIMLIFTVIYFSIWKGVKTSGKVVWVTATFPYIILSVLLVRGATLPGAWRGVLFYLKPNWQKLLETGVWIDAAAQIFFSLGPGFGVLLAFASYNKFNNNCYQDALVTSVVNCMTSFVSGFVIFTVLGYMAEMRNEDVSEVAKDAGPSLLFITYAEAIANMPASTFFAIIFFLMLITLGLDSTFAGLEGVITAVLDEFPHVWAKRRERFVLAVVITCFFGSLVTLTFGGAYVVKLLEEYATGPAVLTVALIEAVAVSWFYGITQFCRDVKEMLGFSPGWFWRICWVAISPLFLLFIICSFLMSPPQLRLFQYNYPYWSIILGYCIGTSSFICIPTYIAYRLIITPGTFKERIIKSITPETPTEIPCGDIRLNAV

Cc1nccc2c1C(C)(C)Nc1cc(Br)ccc1-2 [Veranamine]
affinity for serotonin transporter [1]: no affinity | affinity for norepinephrine transporter [2]: no affinity | affinity for dopamine transporter [3]: no affinity | binding to the sigma-2 receptor (sigma-2 receptor (σ 2)): did not bind | immobility time in mouse forced-swim test (male Swiss Webster mice [4]): decreasing the immobility time significantly | locomotor activity (nonspecific stimulant action) (male Swiss Webster mice [5]): did not demonstrate nonspecific stimulant action
